{"source": "ChEMBL document CHEMBL1201862", "about": "“PubChem BioAssay data set” (2004)", "test_in_all_cases": "DTP human tumour cell line panel, 48 h", "key": {"[1]": {"test_system": "786-0"}, "[2]": {"test_system": "A549"}, "[3]": {"test_system": "ACHN"}, "[4]": {"test_system": "CAKI-1"}, "[5]": {"test_system": "CCRF-CEM"}, "[6]": {"test_system": "COLO 205"}, "[7]": {"test_system": "DLD-1"}, "[8]": {"test_system": "DMS-273"}, "[9]": {"test_system": "EKVX"}, "[10]": {"test_system": "HCC 2998"}, "[11]": {"test_system": "HCT-116"}, "[12]": {"test_system": "HCT-15"}, "[13]": {"test_system": "HL-60"}, "[14]": {"test_system": "HOP-18"}, "[15]": {"test_system": "HOP-62"}, "[16]": {"test_system": "HOP-92"}, "[17]": {"test_system": "HT-29"}, "[18]": {"test_system": "IGROV-1"}, "[19]": {"test_system": "K562"}, "[20]": {"test_system": "KM-20L2"}, "[21]": {"test_system": "KM12"}, "[22]": {"test_system": "LXFL 529"}, "[23]": {"test_system": "M14"}, "[24]": {"test_system": "M19-MEL"}, "[25]": {"test_system": "MOLT-4"}, "[26]": {"test_system": "Malme-3M"}, "[27]": {"test_system": "NCI-H226"}, "[28]": {"test_system": "NCI-H23"}, "[29]": {"test_system": "NCI-H460"}, "[30]": {"test_system": "NCI-H522"}, "[31]": {"test_system": "OVCAR-3"}, "[32]": {"test_system": "OVCAR-4"}, "[33]": {"test_system": "OVCAR-5"}, "[34]": {"test_system": "OVCAR-8"}, "[35]": {"test_system": "RPMI-8226"}, "[36]": {"test_system": "RXF 393"}, "[37]": {"test_system": "SF-268"}, "[38]": {"test_system": "SF-295"}, "[39]": {"test_system": "SF-539"}, "[40]": {"test_system": "SK-MEL-28"}, "[41]": {"test_system": "SK-MEL-2"}, "[42]": {"test_system": "SK-MEL-5"}, "[43]": {"test_system": "SK-OV-3"}, "[44]": {"test_system": "SN12C"}, "[45]": {"test_system": "SNB-19"}, "[46]": {"test_system": "SNB-75"}, "[47]": {"test_system": "SNB-78"}, "[48]": {"test_system": "SR"}, "[49]": {"test_system": "SW-620"}, "[50]": {"test_system": "U-251"}, "[51]": {"test_system": "UACC-257"}, "[52]": {"test_system": "UACC-62"}, "[53]": {"test_system": "UO-31"}, "[54]": {"test_system": "DMS-114"}, "[55]": {"test_system": "LOX IMVI"}, "[56]": {"test_system": "TK-10"}}, "note": "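Method: 48-hour compound exposure of cells in 96-well plates, five concentrations, linear interpolation of endpoints. Here, GI50 denotes the concentration required for 50% inhibition of growth.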 Activity calls are given as the source filed them. Rule as the data show it: active = GI50 up to about 1.1 µM and inactive = higher.", "data": [{"compound": "COc1ccc(NC(=O)CC(=O)N2N=C(N(CCC#N)c3cccc(C)c3)CC2c2ccccc2)cc1", "note": "(stereo unspecified)", "values": [{"measurement": "GI50", "setting": "[1]", "value": "> 100 µM (inactive)"}, {"measurement": "GI50", "setting": "[2]", "value": "> 100 µM (inactive)"}, {"measurement": "GI50", "setting": "[3]", "value": "> 100 µM (inactive)"}, {"measurement": "GI50", "setting": "[4]", "value": "> 100 µM (inactive)"}, {"measurement": "GI50", "setting": "[5]", "value": "> 100 µM (inactive)"}, {"measurement": "GI50", "setting": "[6]", "value": "> 100 µM (inactive)"}, {"measurement": "GI50", "setting": "[7]", "value": "> 100 µM (inactive)"}, {"measurement": "GI50", "setting": "[8]", "value": "> 100 µM (inactive)"}, {"measurement": "GI50", "setting": "[9]", "value": "> 100 µM (inactive)"}, {"measurement": "GI50", "setting": "[10]", "value": "> 100 µM (inactive)"}, {"measurement": "GI50", "setting": "[11]", "value": "> 100 µM (inactive)"}, {"measurement": "GI50", "setting": "[12]", "value": "> 100", "unit": "µM"}, {"measurement": "GI50", "setting": "[13]", "value": "> 100 µM (inactive)"}, {"measurement": "GI50", "setting": "[14]", "value": "> 100 µM (inactive)"}, {"measurement": "GI50", "setting": "[15]", "value": "> 100 µM (inactive)"}, {"measurement": "GI50", "setting": "[16]", "value": "> 100 µM (inactive)"}, {"measurement": "GI50", "setting": "[17]", "value": "> 100 µM (inactive)"}, {"measurement": "GI50", "setting": "[18]", "value": "> 100 µM (inactive)"}, {"measurement": "GI50", "setting": "[19]", "value": "> 100 µM (inactive)"}, {"measurement": "GI50", "setting": "[20]", "value": "> 100 µM (inactive)"}, {"measurement": "GI50", "setting": "[21]", "value": "> 100 µM (inactive)"}, {"measurement": "GI50", "setting": "[22]", "value": "> 100 µM (inactive)"}, {"measurement": "GI50", "setting": "[23]", "value": "> 100 µM (inactive)"}, {"measurement": "GI50", "setting": "[24]", "value": "> 100 µM (inactive)"}, {"measurement": "GI50", "setting": "[25]", "value": "> 100 µM (inactive)"}, {"measurement": "GI50", "setting": "[26]", "value": "> 100 µM (inactive)"}, {"measurement": "GI50", "setting": "[27]", "value": "> 100 µM (inactive)"}, {"measurement": "GI50", "setting": "[28]", "value": "> 100 µM (inactive)"}, {"measurement": "GI50", "setting": "[29]", "value": "> 100 µM (inactive)"}, {"measurement": "GI50", "setting": "[30]", "value": "> 100 µM (inactive)"}, {"measurement": "GI50", "setting": "[31]", "value": "> 100 µM (inactive)"}, {"measurement": "GI50", "setting": "[32]", "value": "> 100 µM (inactive)"}, {"measurement": "GI50", "setting": "[33]", "value": "> 100 µM (inactive)"}, {"measurement": "GI50", "setting": "[34]", "value": "> 100 µM (inactive)"}, {"measurement": "GI50", "setting": "[35]", "value": "> 100 µM (inactive)"}, {"measurement": "GI50", "setting": "[36]", "value": "> 100 µM (inactive)"}, {"measurement": "GI50", "setting": "[37]", "value": "> 100 µM (inactive)"}, {"measurement": "GI50", "setting": "[38]", "value": "> 100 µM (inactive)"}, {"measurement": "GI50", "setting": "[39]", "value": "> 100 µM (inactive)"}, {"measurement": "GI50", "setting": "[40]", "value": "> 100 µM (inactive)"}, {"measurement": "GI50", "setting": "[41]", "value": "> 100 µM (inactive)"}, {"measurement": "GI50", "setting": "[42]", "value": "> 100 µM (inactive)"}, {"measurement": "GI50", "setting": "[43]", "value": "> 100 µM (inactive)"}, {"measurement": "GI50", "setting": "[44]", "value": "> 100 µM (inactive)"}, {"measurement": "GI50", "setting": "[45]", "value": "> 100 µM (inactive)"}, {"measurement": "GI50", "setting": "[46]", "value": "> 100 µM (inactive)"}, {"measurement": "GI50", "setting": "[47]", "value": "> 100 µM (inactive)"}, {"measurement": "GI50", "setting": "[48]", "value": "> 100 µM (inactive)"}, {"measurement": "GI50", "setting": "[49]", "value": "> 100 µM (inactive)"}, {"measurement": "GI50", "setting": "[50]", "value": "> 100 µM (inactive)"}, {"measurement": "GI50", "setting": "[51]", "value": "> 100 µM (inactive)"}, {"measurement": "GI50", "setting": "[52]", "value": "> 100 µM (inactive)"}, {"measurement": "GI50", "setting": "[53]", "value": "> 100 µM (inactive)"}]}, {"compound": "COc1ccc(C(C#N)NNc2nc(C)cc(O)n2)cc1OC", "note": "(stereo unspecified)", "values": [{"measurement": "GI50", "setting": "[1]", "value": "> 100 µM (inactive)"}, {"measurement": "GI50", "setting": "[2]", "value": "> 100 µM (inactive)"}, {"measurement": "GI50", "setting": "[3]", "value": "> 100 µM (inactive)"}, {"measurement": "GI50", "setting": "[4]", "value": "> 100 µM (inactive)"}, {"measurement": "GI50", "setting": "[5]", "value": "> 100 µM (inactive)"}, {"measurement": "GI50", "setting": "[6]", "value": "> 100 µM (inactive)"}, {"measurement": "GI50", "setting": "[7]", "value": "> 100 µM (inactive)"}, {"measurement": "GI50", "setting": "[54]", "value": "> 100 µM (inactive)"}, {"measurement": "GI50", "setting": "[8]", "value": "> 100 µM (inactive)"}, {"measurement": "GI50", "setting": "[11]", "value": "> 100 µM (inactive)"}, {"measurement": "GI50", "setting": "[12]", "value": "> 100", "unit": "µM"}, {"measurement": "GI50", "setting": "[13]", "value": "> 100 µM (inactive)"}, {"measurement": "GI50", "setting": "[14]", "value": "> 100 µM (inactive)"}, {"measurement": "GI50", "setting": "[15]", "value": "> 100 µM (inactive)"}, {"measurement": "GI50", "setting": "[16]", "value": "> 100 µM (inactive)"}, {"measurement": "GI50", "setting": "[17]", "value": "> 100 µM (inactive)"}, {"measurement": "GI50", "setting": "[18]", "value": "> 100 µM (inactive)"}, {"measurement": "GI50", "setting": "[19]", "value": "> 100 µM (inactive)"}, {"measurement": "GI50", "setting": "[20]", "value": "> 100 µM (inactive)"}, {"measurement": "GI50", "setting": "[21]", "value": "> 100 µM (inactive)"}, {"measurement": "GI50", "setting": "[55]", "value": "> 100 µM (inactive)"}, {"measurement": "GI50", "setting": "[22]", "value": "> 100 µM (inactive)"}, {"measurement": "GI50", "setting": "[23]", "value": "> 100 µM (inactive)"}, {"measurement": "GI50", "setting": "[24]", "value": "> 100 µM (inactive)"}, {"measurement": "GI50", "setting": "[25]", "value": "> 100 µM (inactive)"}, {"measurement": "GI50", "setting": "[26]", "value": "> 100 µM (inactive)"}, {"measurement": "GI50", "setting": "[27]", "value": "> 100 µM (inactive)"}, {"measurement": "GI50", "setting": "[28]", "value": "> 100 µM (inactive)"}, {"measurement": "GI50", "setting": "[29]", "value": "> 100 µM (inactive)"}, {"measurement": "GI50", "setting": "[30]", "value": "> 100 µM (inactive)"}, {"measurement": "GI50", "setting": "[31]", "value": "> 100 µM (inactive)"}, {"measurement": "GI50", "setting": "[32]", "value": "> 100 µM (inactive)"}, {"measurement": "GI50", "setting": "[33]", "value": "> 100 µM (inactive)"}, {"measurement": "GI50", "setting": "[34]", "value": "> 100 µM (inactive)"}, {"measurement": "GI50", "setting": "[35]", "value": "> 100 µM (inactive)"}, {"measurement": "GI50", "setting": "[36]", "value": "> 100 µM (inactive)"}, {"measurement": "GI50", "setting": "[37]", "value": "> 100 µM (inactive)"}, {"measurement": "GI50", "setting": "[38]", "value": "> 100 µM (inactive)"}, {"measurement": "GI50", "setting": "[39]", "value": "> 100 µM (inactive)"}, {"measurement": "GI50", "setting": "[40]", "value": "> 100 µM (inactive)"}, {"measurement": "GI50", "setting": "[41]", "value": "> 100 µM (inactive)"}, {"measurement": "GI50", "setting": "[42]", "value": "> 100 µM (inactive)"}, {"measurement": "GI50", "setting": "[43]", "value": "> 100 µM (inactive)"}, {"measurement": "GI50", "setting": "[44]", "value": "> 100 µM (inactive)"}, {"measurement": "GI50", "setting": "[46]", "value": "71.9 µM (inactive)"}, {"measurement": "GI50", "setting": "[47]", "value": "> 100 µM (inactive)"}, {"measurement": "GI50", "setting": "[48]", "value": "> 100 µM (inactive)"}, {"measurement": "GI50", "setting": "[49]", "value": "> 100 µM (inactive)"}, {"measurement": "GI50", "setting": "[56]", "value": "> 100 µM (inactive)"}, {"measurement": "GI50", "setting": "[50]", "value": "> 100 µM (inactive)"}, {"measurement": "GI50", "setting": "[51]", "value": "> 100 µM (inactive)"}, {"measurement": "GI50", "setting": "[52]", "value": "> 100 µM (inactive)"}, {"measurement": "GI50", "setting": "[53]", "value": "> 100 µM (inactive)"}]}]}
